{
  "source": "PubChem BioAssay (NCI)",
  "experiment_in_all_cases": "inhibition of tumour cell growth, NCI panel, 48 h",
  "key": {"SF-295 CNS": {"tested_on": "SF-295 CNS"}, "SK-MEL-28 melanoma": {"tested_on": "SK-MEL-28 melanoma"}, "NCI-H226 lung": {"tested_on": "NCI-H226 lung"}, "HCC-2998 colon": {"tested_on": "HCC-2998 colon"}, "SF-268 CNS": {"tested_on": "SF-268 CNS"}, "HS 578T breast": {"tested_on": "HS 578T breast"}, "HL-60(TB) leukemia": {"tested_on": "HL-60(TB) leukemia"}, "MDA-MB-231 breast": {"tested_on": "MDA-MB-231 breast"}, "MALME-3M melanoma": {"tested_on": "MALME-3M melanoma"}, "K-562 leukemia": {"tested_on": "K-562 leukemia"}, "SF-539 CNS": {"tested_on": "SF-539 CNS"}, "M14 melanoma": {"tested_on": "M14 melanoma"}, "HT29 colon": {"tested_on": "HT29 colon"}, "RPMI-8226 leukemia": {"tested_on": "RPMI-8226 leukemia"}, "PC-3 prostate": {"tested_on": "PC-3 prostate"}, "786-0 renal": {"tested_on": "786-0 renal"}, "UO-31 renal": {"tested_on": "UO-31 renal"}, "CAKI-1 renal": {"tested_on": "CAKI-1 renal"}, "SK-OV-3 ovarian": {"tested_on": "SK-OV-3 ovarian"}, "CCRF-CEM leukemia": {"tested_on": "CCRF-CEM leukemia"}, "OVCAR-4 ovarian": {"tested_on": "OVCAR-4 ovarian"}, "MOLT-4 leukemia": {"tested_on": "MOLT-4 leukemia"}, "HOP-92 NSCLC": {"tested_on": "HOP-92 NSCLC"}, "HCT-116 colon": {"tested_on": "HCT-116 colon"}, "RXF 393 renal": {"tested_on": "RXF 393 renal"}, "SN12C renal": {"tested_on": "SN12C renal"}, "UACC-257 melanoma": {"tested_on": "UACC-257 melanoma"}, "SNB-19 CNS": {"tested_on": "SNB-19 CNS"}},
  "note": "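A five-concentration, 48-hour dose response in 96-well plates underlies each endpoint, interpolated linearly between surrounding concentrations. The concentration for 50% growth inhibition is given as GI50. TGI: concentration producing complete growth inhibition.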",
  "data": [
    {"smiles": "C=C1C(=O)O[C@@H]2C[C@@H](C)/C=C\\C(=O)[C@](C)(OC(C)=O)C[C@H](OC(=O)/C(C)=C\\C)[C@@H]12", "values": [
      {"measurement": "GI50", "setting": "SF-295 CNS", "value": 7.73, "unit": "µM"},
      {"measurement": "TGI", "setting": "SF-295 CNS", "value": 20.2, "unit": "µM"},
      {"measurement": "GI50", "setting": "SK-MEL-28 melanoma", "value": 1.81, "unit": "µM"},
      {"measurement": "TGI", "setting": "SK-MEL-28 melanoma", "value": 5.49, "unit": "µM"},
      {"measurement": "GI50", "setting": "NCI-H226 lung", "value": 3.48, "unit": "µM"},
      {"measurement": "TGI", "setting": "NCI-H226 lung", "value": 6.83, "unit": "µM"},
      {"measurement": "GI50", "setting": "HCC-2998 colon", "value": 4.14, "unit": "µM"},
      {"measurement": "TGI", "setting": "HCC-2998 colon", "value": 8.31, "unit": "µM"},
      {"measurement": "GI50", "setting": "SF-268 CNS", "value": 5.38, "unit": "µM"},
      {"measurement": "TGI", "setting": "SF-268 CNS", "value": 20.8, "unit": "µM"},
      {"measurement": "GI50", "setting": "HS 578T breast", "value": 12.3, "unit": "µM"},
      {"measurement": "TGI", "setting": "HS 578T breast", "value": "> 25", "unit": "µM"},
      {"measurement": "GI50", "setting": "HL-60(TB) leukemia", "value": 1, "unit": "µM"},
      {"measurement": "TGI", "setting": "HL-60(TB) leukemia", "value": 5.75, "unit": "µM"},
      {"measurement": "GI50", "setting": "MDA-MB-231 breast", "value": 1.7, "unit": "µM"},
      {"measurement": "TGI", "setting": "MDA-MB-231 breast", "value": 5.89, "unit": "µM"},
      {"measurement": "GI50", "setting": "MALME-3M melanoma", "value": 1.1, "unit": "µM"},
      {"measurement": "TGI", "setting": "MALME-3M melanoma", "value": 5.11, "unit": "µM"},
      {"measurement": "GI50", "setting": "K-562 leukemia", "value": 0.978, "unit": "µM"},
      {"measurement": "TGI", "setting": "K-562 leukemia", "value": "> 25", "unit": "µM"},
      {"measurement": "GI50", "setting": "SF-539 CNS", "value": 3.19, "unit": "µM"},
      {"measurement": "TGI", "setting": "SF-539 CNS", "value": 6.52, "unit": "µM"},
      {"measurement": "GI50", "setting": "M14 melanoma", "value": 3.69, "unit": "µM"},
      {"measurement": "TGI", "setting": "M14 melanoma", "value": 11, "unit": "µM"},
      {"measurement": "GI50", "setting": "HT29 colon", "value": 1.06, "unit": "µM"},
      {"measurement": "TGI", "setting": "HT29 colon", "value": 4, "unit": "µM"},
      {"measurement": "GI50", "setting": "RPMI-8226 leukemia", "value": 0.893, "unit": "µM"},
      {"measurement": "TGI", "setting": "RPMI-8226 leukemia", "value": 2.94, "unit": "µM"},
      {"measurement": "GI50", "setting": "PC-3 prostate", "value": 4.77, "unit": "µM"},
      {"measurement": "TGI", "setting": "PC-3 prostate", "value": 13.7, "unit": "µM"},
      {"measurement": "GI50", "setting": "786-0 renal", "value": 2.66, "unit": "µM"},
      {"measurement": "TGI", "setting": "786-0 renal", "value": 5.93, "unit": "µM"},
      {"measurement": "GI50", "setting": "UO-31 renal", "value": 2.91, "unit": "µM"},
      {"measurement": "TGI", "setting": "UO-31 renal", "value": 6, "unit": "µM"},
      {"measurement": "GI50", "setting": "CAKI-1 renal", "value": 1.09, "unit": "µM"},
      {"measurement": "TGI", "setting": "CAKI-1 renal", "value": 3.97, "unit": "µM"},
      {"measurement": "GI50", "setting": "SK-OV-3 ovarian", "value": 11.1, "unit": "µM"},
      {"measurement": "TGI", "setting": "SK-OV-3 ovarian", "value": "> 25", "unit": "µM"},
      {"measurement": "GI50", "setting": "CCRF-CEM leukemia", "value": 0.834, "unit": "µM"},
      {"measurement": "TGI", "setting": "CCRF-CEM leukemia", "value": 4.41, "unit": "µM"},
      {"measurement": "GI50", "setting": "OVCAR-4 ovarian", "value": 1.58, "unit": "µM"},
      {"measurement": "TGI", "setting": "OVCAR-4 ovarian", "value": 8.48, "unit": "µM"},
      {"measurement": "GI50", "setting": "MOLT-4 leukemia", "value": 0.896, "unit": "µM"},
      {"measurement": "TGI", "setting": "MOLT-4 leukemia", "value": 4.25, "unit": "µM"},
      {"measurement": "GI50", "setting": "HOP-92 NSCLC", "value": 3.74, "unit": "µM"},
      {"measurement": "TGI", "setting": "HOP-92 NSCLC", "value": 8.05, "unit": "µM"},
      {"measurement": "GI50", "setting": "HCT-116 colon", "value": 0.835, "unit": "µM"},
      {"measurement": "TGI", "setting": "HCT-116 colon", "value": 3.13, "unit": "µM"},
      {"measurement": "GI50", "setting": "RXF 393 renal", "value": 0.683, "unit": "µM"},
      {"measurement": "TGI", "setting": "RXF 393 renal", "value": 1.87, "unit": "µM"},
      {"measurement": "GI50", "setting": "SN12C renal", "value": 5.73, "unit": "µM"},
      {"measurement": "TGI", "setting": "SN12C renal", "value": "> 25", "unit": "µM"},
      {"measurement": "GI50", "setting": "UACC-257 melanoma", "value": 2.66, "unit": "µM"},
      {"measurement": "TGI", "setting": "UACC-257 melanoma", "value": 6.77, "unit": "µM"},
      {"measurement": "GI50", "setting": "SNB-19 CNS", "value": 11.5, "unit": "µM"},
      {"measurement": "TGI", "setting": "SNB-19 CNS", "value": "> 25", "unit": "µM"}
    ]}
  ]
}
